Earlier results, collected in article PMC7395068, “The evolution of strategies to minimise the risk of human drug-induced liver injury (DILI) in drug discovery and development” (Archives of Toxicology, 2020).
Where two headings read alike, the source gives them in different places.

Details: cited from earlier work
[1] = binary in vivo DILI call given beside the severity category, ref Chen 2016
[2] = human DILI concern category (LTKB DILIrank), ref Chen 2016

SMILES | DILI +VE (5-8), DILI -VE (-4) [1] | DILI severity category [2] | DILI +VE (5-8), DILI -VE (-4) (in vivo) | DILI severity category (in vivo)
CCCN[C@H]1CCc2nc(N)sc2C1 [pramipexole] | -VE | Ambiguous DILI-concern |  | 
COc1cc2nc(N3CCN(C(=O)c4ccco4)CC3)nc(N)c2cc1OC [prazosin] |  |  | -VE | Ambiguous DILI-concern
CC(C)c1cccc(C(C)C)c1O [propofol] |  |  | +VE | vLess-DILI-Concern
NC(=O)[C@@H]1CCCN1C(=O)[C@H](Cc1cnc[nH]1)NC(=O)[C@@H]1CCC(=O)N1 [protirelin] |  |  | -VE | vNo-DILI-Concern
Fc1ccccc1C1=NCC(=S)N(CC(F)(F)F)c2ccc(Cl)cc21 [quazepam] | -VE | vNo-DILI-Concern |  | 
OCCOCCN1CCN(C2=Nc3ccccc3Sc3ccccc32)CC1 [quetiapine] | +VE | vLess-DILI-Concern |  | 
COCCCOc1ccnc(C[S+]([O-])c2nc3ccccc3[nH]2)c1C (stereo not shown) [rabeprazole] | +VE | vLess-DILI-Concern |  | 
CCC(=O)NCC[C@@H]1CCc2ccc3c(c21)CCO3 [ramelteon] | -VE | vNo-DILI-Concern |  | 
CCOC(=O)[C@H](CCc1ccccc1)N[C@@H](C)C(=O)N1[C@H](C(=O)O)C[C@@H]2CCC[C@@H]21 [ramipril] |  |  | +VE | vLess-DILI-Concern
C#CCN[C@@H]1CCc2ccccc21 [rasagiline] | -VE | Ambiguous DILI-concern |  | 
CNC(=O)c1cnn(-c2nc(N)c3ncn([C@@H]4O[C@H](CO)[C@@H](O)[C@H]4O)c3n2)c1 [regadenoson] |  |  | -VE | vNo-DILI-Concern
CCOc1cc(CC(=O)N[C@@H](CC(C)C)c2ccccc2N2CCCCC2)ccc1C(=O)O [repaglinide] | +VE | vLess-DILI-Concern |  | 
COC(=O)[C@H]1[C@H]2C[C@@H]3c4[nH]c5cc(OC)ccc5c4CCN3C[C@H]2C[C@@H](OC(=O)c2cc(OC)c(OC)c(OC)c2)[C@@H]1OC [reserpine] | -VE | vNo-DILI-Concern |  | 
CO[C@H]1/C=C/O[C@@]2(C)Oc3c(C)c(O)c4c(c3C2=O)C2=NC3(CCN(CC(C)C)CC3)NC2=C(NC(=O)/C(C)=C\C=C\[C@H](C)[C@H](O)[C@@H](C)[C@@H](O)[C@@H](C)[C@H](OC(C)=O)[C@@H]1C)C4=O [rifabutin] | +VE | vLess-DILI-Concern |  | 
CC(N)C12CC3CC(CC(C3)C1)C2 (stereo not shown) [rimantadine] | -VE | vNo-DILI-Concern |  | 
CCN(C)C(=O)Oc1cccc([C@H](C)N(C)C)c1 [rivastigmine] | +VE | vLess-DILI-Concern |  | 
CN(C)CCc1c[nH]c2ccc(Cn3cncn3)cc12 [rizatriptan] | -VE | vNo-DILI-Concern |  | 
C=CC[N+]1([C@H]2C[C@H]3[C@@H]4CC[C@H]5C[C@H](O)[C@@H](N6CCOCC6)C[C@]5(C)[C@H]4CC[C@]3(C)[C@H]2OC(C)=O)CCCC1 [rocuronium] |  |  | -VE | vNo-DILI-Concern
CCCN(CCC)CCc1cccc2c1CC(=O)N2 [ropinirole] | +VE | vLess-DILI-Concern |  | 
CC(C)(C)NCC(O)c1ccc(O)c(CO)c1 (stereo not shown) [salbutamol] | -VE | vNo-DILI-Concern |  | 

SMILES | DILI +VE (5-8), DILI -VE (-4) [1] | DILI severity category [2] | DILI +VE (5-8), DILI -VE (-4) (in vivo) | DILI severity category (in vivo)
O=C(Oc1ccccc1C(=O)O)c1ccccc1O [salsalate] | +VE | vLess-DILI-Concern |  | 
C=CCC1(C(C)CCC)C(=O)NC(=O)NC1=O (stereo not shown) [secobarbital] | -VE | Ambiguous DILI-concern |  | 
CC(C)CC(N(C)C)C1(c2ccc(Cl)cc2)CCC1 (stereo not shown) [sibutramine] |  |  | +VE | vLess-DILI-Concern
C[C@H](Cc1cc2c(c(C(N)=O)c1)N(CCCO)CC2)NCCOc1ccccc1OCC(F)(F)F [silodosin] | -VE | Ambiguous DILI-concern |  | 
CSCC[C@H](NC(=O)[C@H](Cc1ccc(OS(=O)(=O)O)cc1)NC(=O)[C@@H](N)CC(=O)O)C(=O)NCC(=O)N[C@@H](Cc1c[nH]c2ccccc12)C(=O)N[C@@H](CCSC)C(=O)N[C@@H](CC(=O)O)C(=O)N[C@@H](Cc1ccccc1)C(N)=O [sincalide] |  |  | -VE | vNo-DILI-Concern
CO[C@H]1C[C@@H]2CC[C@@H](C)[C@@](O)(O2)C(=O)C(=O)N2CCCC[C@H]2C(=O)O[C@H]([C@H](C)C[C@@H]2CC[C@@H](O)[C@H](OC)C2)CC(=O)[C@H](C)/C=C(\C)[C@@H](O)[C@@H](OC)C(=O)[C@H](C)C[C@H](C)/C=C/C=C/C=C/1C [sirolimus] | +VE | vLess-DILI-Concern |  | 
N[C@@H](CC(=O)N1CCn2c(nnc2C(F)(F)F)C1)Cc1cc(F)c(F)cc1F [sitagliptin] | +VE | vLess-DILI-Concern |  | 
O=C([O-])O.[Na+] [sodium bicarbonate] |  |  | -VE | 
CC(O)C(=O)[O-].[Na+] (stereo not shown) [sodium lactate] |  |  | -VE | vNo-DILI-Concern
O=S([O-])([O-])=S.[Na+].[Na+] [sodium thiosulfate] |  |  | -VE | vNo-DILI-Concern
O=C(O)[C@@H](S)[C@@H](S)C(=O)O [succimer] | +VE | vLess-DILI-Concern |  | 
C[N+](C)(C)CCOC(=O)CCC(=O)OCC[N+](C)(C)C [succinylcholine] | -VE | vNo-DILI-Concern |  | 
CCCCCCCCNC(C)C(O)c1ccc(SC(C)C)cc1 (stereo not shown) [sulcotidil] |  |  | +VE | vMost-DILI-Concern
NC(=O)NS(=O)(=O)c1ccc(N)cc1 [sulfacarbamide] | +VE | vMost-DILI-Concern |  | 
Nc1ccc(S(=O)(=O)Nc2ncccn2)cc1 [sulfadiazine] | +VE | vLess-DILI-Concern |  | 
Nc1ccc(S(=O)(=O)Nc2nccs2)cc1 [sulfathiazole] | +VE | vMost-DILI-Concern |  | 
CN1CC(=O)N2[C@H](c3ccc4c(c3)OCO4)c3[nH]c4ccccc4c3C[C@@H]2C1=O [tadalafil] | -VE | Ambiguous DILI-concern |  | 
CC[C@@H](c1cccc(O)c1)[C@@H](C)CN(C)C [tapentadol] | -VE | vNo-DILI-Concern |  | 
CCCCCNC(=N)N/N=C/c1c[nH]c2ccc(OC)cc12 [tegaserod] | -VE | Ambiguous DILI-concern |  | 
COc1cc([C@@H]2c3cc4c(cc3[C@@H](O[C@@H]3O[C@@H]5CO[C@@H](c6cccs6)O[C@H]5[C@H](O)[C@H]3O)[C@H]3COC(=O)[C@H]23)OCO4)cc(OC)c1O [teniposide] | +VE | vLess-DILI-Concern |  | 
